Like-named read-outs stand apart in the source and are kept apart here. Blank lines part the entries; values can stand above or below the compound they belong to.
Key:
TTR [1] = test: Transthyretin (TTR) ELISA analysis of mouse serum after LNP dosing; assay type: in vivo; conditions: for response vs control in vivo at 0.1 mg/kg: read-out: Serum TTR % TSS
In short: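 Female CD-1 mice aged 6-10 weeks were grouped by body weight and given LNPs by lateral tail vein injection (0.2 mL per animal, about 10 mL per kilogram). Mice were bled by cardiac puncture under isoflurane into serum separator tubes. Serum was diluted 10,000-fold for the 0.1 mpk dose, and total TTR was quantified with a Mouse Prealbumin (Transthyretin) ELISA Kit following the kit directions.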

B2M = B2M editing in mouse liver by NGS after i.v. LNP delivery of Cas9 mRNA and sgRNA; assay type: in vivo; conditions: CD-1 female mice; for % Editing B2M in mouse liver: 7 days post-dose, G650 1:1; for Editing (%) of B2M in mouse liver: Example 52: LNP single dose 0.1 mg/kg i.v., sgRNA G650:Cas9 mRNA 1:1, NGS
Protocol: Preparations of various LNP compositions were prepared with amine lipids. In assays for percent liver editing in mice, Cas9 mRNA and chemically modified sgRNA were formulated in LNPs, at either a 1:1 w/w ratio or a 1:2 w/w ratio. LNPs are formulated with a composition of a given ionizable lipid (e.g. an amine lipid), DSPC, cholesterol, and PEG-2k-DMG, with a 6.0 N:P ratio.
LNPs were administered to mice by a single dose at 0.1 mg/kg, unless otherwise noted and genomic DNA was isolated for NGS analysis as described below.
CD-1 female mice, ranging from 6-10 weeks of age were used in each study. Animals were weighed and grouped according to body weight for preparing dosing solutions based on group average weight. LNPs were dosed via the lateral tail vein in a volume of 0.2 mL per animal (approximately 10 mL per kilogram body weight). The animals were periodically observed post dose for adverse effects for at least 24 hours post dose. Animals were euthanized at 6 or 7 days by exsanguination via cardiac puncture under isoflurane anesthesia. Blood was collected into serum separator tubes or into tubes containing buffered sodium citrate for plasma as described herein. For studies involving in vivo editing, liver tissue was collected from each animal for DNA extraction and analysis.
Cohorts of mice were measured for liver editing by Next-Generation Sequencing (NGS).
In brief, to quantitatively determine the efficiency of editing at the target location in the genome, genomic DNA was isolated and deep sequencing was utilized to identify the presence of insertions and deletions introduced by gene editing.
PCR primers were designed around the target site (e.g., B2M), and the genomic area of interest was amplified. Additional PCR was performed according to the manufacturer's protocols (Illumina) to add the necessary chemistry for sequencing. The amplicons were sequenced on an Illumina MiSeq instrument. The reads were aligned to the […] after eliminating those having low quality scores. The resulting files containing the reads were mapped to the reference genome (BAM files), where reads that overlapped the target region of interest were selected and the number of wild type reads versus the number of reads which contain an insertion, substitution, or deletion was calculated.
The editing percentage (e.g., the “editing efficiency” or “percent editing”) is defined as the total number of sequence reads with insertions or deletions over the total number of sequence reads, including wild type.
CD-1 female mice were dosed i.v. at 0.1 mpk or 0.3 mpk. […] For animals dosed with G282 targeting TTR, blood and the liver were collected and serum TTR and editing were measured. For animals dosed with G650 targeting B2M, liver was collected and editing was measured.

TTR [2] = test: TTR editing in mouse liver by NGS after i.v. LNP delivery of Cas9 mRNA and sgRNA; assay type: in vivo; conditions: CD-1 female mice
In short: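 Cas9 mRNA and chemically modified sgRNA were co-formulated in LNPs made of an ionizable amine lipid, DSPC, cholesterol and PEG-2k-DMG at a 6.0 N:P ratio. CD-1 female mice aged 6-10 weeks received tail-vein injections of 0.2 mL. Liver genomic DNA was then amplified around the target site and sequenced on an Illumina MiSeq, with editing calculated as indel-containing reads over total reads.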

[3] = pKa measurement of unformulated amine lipid (fluorescence, method of Jayaraman et al.); assay type: physicochemical; conditions: 100 μM in 0.1 M phosphate buffer pH 4.5-9.0
Protocol: The pKa of each amine lipid was determined according to the method in Jayaraman, et al. (Angewandte Chemie, 2012) with the following adaptations. […] Lipid was diluted to 100 μM in 0.1 M phosphate buffer (Boston Bioproducts) where the pH ranged from 4.5-9.0. Fluorescence intensity was measured using excitation and emission wavelengths of 321 nm and 448 nm.

[4] = RNA encapsulation efficiency of LNP (Ribogreen fluorescence assay); assay type: physicochemical; conditions: N:P 6.0
Protocol: A fluorescence-based assay (Ribogreen®, ThermoFisher Scientific) is used to determine total RNA concentration and free RNA. Encapsulation efficiency is calculated as (Total RNA−Free RNA)/Total RNA. LNP samples are diluted appropriately with 1× TE buffer containing 0.2% Triton-X 100 to determine total RNA or 1× TE buffer to determine free RNA. Standard curves are prepared by utilizing the starting RNA solution used to make the compositions and diluted in 1× TE buffer+/−0.2% Triton-X 100. Diluted RiboGreen® dye (according to the manufacturer's instructions) is then added to each of the standards and samples and allowed to incubate for approximately 10 minutes at room temperature, in the absence of light. A SpectraMax M5 Microplate Reader (Molecular Devices) is used to read the samples with excitation, auto cutoff and emission wavelengths set to 488 nm, 515 nm, and 525 nm respectively. Total RNA and free RNA are determined from the appropriate standard curves.
Encapsulation efficiency is calculated as (Total RNA−Free RNA)/Total RNA. The same procedure may be used for determining the encapsulation efficiency of a DNA-based cargo component. For single-strand DNA Oligreen Dye may be used, and for double-strand DNA, Picogreen Dye.

[5] = LNP average particle size and polydispersity by dynamic light scattering (Malvern Zetasizer); assay type: physicochemical
Source text: The LNPs have a size of about 1 to about 1,000 nm, about 10 to about 500 nm, about 20 to about 500 nm, in a sub-embodiment about 50 to about 400 nm, in a sub-embodiment about 50 to about 300 nm, in a sub-embodiment about 50 to about 200 nm, and in a sub-embodiment about 50 to about 150 nm, and in another sub-embodiment about 60 to about 120 nm. Preferably, the LNPs have a size from about 60 nm to about 100 nm. The average sizes (diameters) of the fully formed LNP, may be measured by dynamic light scattering on a Malvern Zetasizer. The LNP sample is diluted in phosphate buffered saline (PBS) so that the count rate is approximately 200-400 kcps. The data is presented as a weighted average of the intensity measure.
The LNPs disclosed herein have a size (e.g. Z-average diameter) of about 1 to about 250 nm. In some embodiments, the LNPs have a size of about 10 to about 200 nm. In further embodiments, the LNPs have a size of about 20 to about 150 nm. In some embodiments, the LNPs have a size of about 50 to about 150 nm. In some embodiments, the LNPs have a size of about 50 to about 100 nm. In some embodiments, the LNPs have a size of about 50 to about 120 nm. In some embodiments, the LNPs have a size of about 60 to about 100 nm. In some embodiments, the LNPs have a size of about 75 to about 150 nm. In some embodiments, the LNPs have a size of about 75 to about 120 nm. In some embodiments, the LNPs have a size of about 75 to about 100 nm. Unless indicated otherwise, all sizes referred to herein are the average sizes (diameters) of the fully formed nanoparticles, as measured by dynamic light scattering on a Malvern Zetasizer. The nanoparticle sample is diluted in phosphate buffered saline (PBS) so that the count rate is approximately 200-400 kcps. The data is presented as a weighted-average of the intensity measure (Z-average diameter).
Dynamic Light Scattering (“DLS”) is used to characterize the polydispersity index (“pdi”) and size of the LNPs of the present disclosure. DLS measures the scattering of light that results from subjecting a sample to a light source. PDI, as determined from DLS measurements, represents the distribution of particle size (around the mean particle size) in a population, with a perfectly uniform population having a PDI of zero.
LNP compositions are analyzed for average particle size, polydispersity index (pdi), total RNA content, encapsulation efficiency of RNA, and zeta potential. LNP compositions may be further characterized by lipid analysis, AF4-MALS, NTA, and/or cryo-EM. Average particle size and polydispersity are measured by dynamic light scattering (DLS) using a Malvern Zetasizer DLS instrument. LNP samples were diluted with PBS buffer prior to being measured by DLS. Z-average diameter which is an intensity-based measurement of average particle size was reported along with number average diameter and pdi. A Malvern Zetasizer instrument is also used to measure the zeta potential of the LNP. Samples are diluted 1:17 (50 μL into 800 μL) in 0.1×PBS, pH 7.4 prior to measurement.

[6] = Example 61: 0.1 mpk i.v., 7 days post-dose, G282 1:1
[7] = Mus musculus, iv, 168 h, Example 61: 0.1 mpk i.v., 7 days post-dose, G282 1:1
[8] = Example 60: 0.1 mpk i.v., 6 days post-dose, G502 1:2
[9] = Table 18, Example 60: LNP, G502 1:2
[10] = Table 20, Example 61: LNP, G282 1:1
[11] = Example 59: 0.1 mpk i.v., 7 days post-dose, G282 1:1
[12] = Table 16, Example 59: LNP, G282 1:1
[13] = Example 64: Dose 0.03 mpk (table) i.v., 7 days post-dose, G282 1:1
[14] = Table 26, Example 64: LNP, G282 1:1

Structure (SMILES): CCCCCCCCCOC(=O)CCCCCCCN(CCO)CCCCCCCCCC(OCCCCCCC)OCCCCCCC [Compound 4, nonyl 8-[10, 10-diheptoxydecyl(2-hydroxyethyl)amino]octanoate]
Serum TTR (TTR [1]; [6]): 333 µg/mL | response vs control in vivo at 0.1 mg/kg (TTR [1]; [7]): 26% | % Editing B2M in mouse liver (B2M; Example 54: 0.1 mpk i.v.): 29% | % Editing B2M in mouse liver (B2M; Example 54: 0.3 mpk i.v.): 57% | Editing Mean % Indel (TTR [2]; [6]): 46.7% | pKa [3]: 7.04

pKa [3]: 6.3
Structure (SMILES): CCCCCCCCCOC(=O)CCCCCCCN(CCO)CCCCCCCCCC(OCCCCCCCCC)OCCCCCCCCC [Compound 6, 8-[10,10-di(nonoxy)decyl-(2-hydroxyethyl)amino]octanoate]
Editing (%) of B2M in mouse liver (B2M): 8.2%

pKa [3]: 6.23
Structure (SMILES): CCCCCCCCCOC(=O)CCCCCCCN(CCO)CCCCCCCC(OCCCCCCCCC)OCCCCCCCCC [Compound 2]
Editing (%) of B2M in mouse liver (B2M): 17.7%

Encapsulation (%) ([4]; Table 18, Example 60: LNP, G502 (TTR), sgRNA:Cas9 mRNA 1:2 w/w): 93% | pKa [3]: 6.04 | Num Ave Size (nm) [5, 9]: 61.86 nm | PDI [5, 9]: 0.054 | Z-Ave Size (nm) [5, 9]: 79.04 nm
Structure (SMILES): CCCCCCCCOC(CCCCCCCN(CCO)CCCCCCCCOC(=O)CCCCCCCC)OCCCCCCCC [Compound 23, 8-((8,8-bis(octyloxy)octyl)(2-hydroxyethyl)amino)octyl nonanoate]
Serum TTR (TTR [1]; [8]): 307 µg/mL | response vs control in vivo at 0.1 mg/kg (TTR [1]; Mus musculus, iv, 144 h, Example 60: 0.1 mpk i.v., 6 days post-dose, G502 1:2): 22% | Editing Mean % Indel (TTR [2]; [8]): 53.6%

Encapsulation (%) ([4]; Table 20, Example 61: LNP, G282 (TTR) 1:1 w/w): 99% | pKa [3]: 6.19 | Num Ave Size (nm) [5, 10]: 48.37 nm | PDI [5, 10]: 0.07 | Z-Ave Size (nm) [5, 10]: 63.25 nm
Structure (SMILES): CCCCCCCCCOC(=O)CCCCCCCN(CCO)CCCCCCCCCC(CCCCCCCC)CCCCCCCC [Compound 26, nonyl 8-((2-hydroxyethyl)(10-octyloctadecyl)amino)octanoate, reference compound]
Serum TTR (TTR [1]; [6]): 979 µg/mL | response vs control in vivo at 0.1 mg/kg (TTR [1]; [7]): 76% | Editing Mean % Indel (TTR [2]; [6]): 2.6%

Encapsulation (%) ([4]; Table 16, Example 59: LNP, G282 (TTR) 1:1 w/w): 83% | pKa [3]: 5.81 | Num Ave Size (nm) [5, 12]: 58.65 nm | PDI [5, 12]: 0.102 | Z-Ave Size (nm) [5, 12]: 84.49 nm
Structure (SMILES): CCCCCCCCCOC(=O)CCCCCCCN(CCO)CCCCCCC(OCCCCCCC)OCCCCCCC [Compound 20, nonyl 8-((7,7-bis(heptyloxy)heptyl)(2-hydroxyethyl)amino)octanoate]
Serum TTR (TTR [1]; [11]): 210 µg/mL | response vs control in vivo at 0.1 mg/kg (TTR [1]; Mus musculus, iv, 168 h, Example 59: 0.1 mpk i.v., 7 days post-dose, G282 1:1): 23% | Editing Mean % Indel (TTR [2]; [11]): 35.0%

Structure (SMILES): CCCCCCCCCOC(=O)CCCCCCCN(CCCCCCC(OCCCCCCCC)OCCCCCCCC)CCCNC(=O)OC [Compound 43, nonyl 8-((7,7-bis(octyloxy)heptyl)(3-((methoxycarbonyl)amino)propyl)amino)octanoate]
Encapsulation (%) ([4]; Table 26, Example 64: LNP, G282 (TTR) 1:1 w/w): 94% | Serum TTR (TTR [1]; [13]): 619.2 µg/mL | inhibition in vivo at 0.03 mg/kg (TTR [1]; Mus musculus, iv, 168 h, Example 64: Dose 0.03 mpk (table) i.v., 7 days post-dose, G282 1:1, read-out: Serum TTR (% KD)): -8.1% | Editing Mean % Indel (TTR [2]; [13]): 8.6% | pKa [3]: 6.02 | Num Ave Size (nm) [5, 14]: 56 nm | PDI [5, 14]: 0.05 | Z-Ave Size (nm) [5, 14]: 74 nm

Reference: patent publication US20260225997A1, “IONIZABLE AMINE LIPIDS” (Intellia Therapeutics, Inc., priority 2018, published 2026)
